Data taken from patent US10076540B1, “Medication enhancement using hydrogen” (Perricone Hydrogen Water Company, LLC, priority 2017, dated 2018).

Experiment: Time until the effects of THC are felt after ingestion of a hydrogen-containing composition (uptake rate)
Format: in vivo
Settings: human subject; drunk composition of liquid such as water, dissolved hydrogen and THC
Description: In some embodiments, the composition comprising hydrogen and an active pharmaceutical agent may have an uptake rate that is at least 2, at least 3, at least 5, at least 10, at least 20, at least 30, or at least 50 times the uptake rate of the active pharmaceutical agent alone by a subject. In certain embodiments, composition comprising hydrogen and an active pharmaceutical agent may have an uptake rate that is less than or equal to 100, less than or equal to 50, less than or equal to 30, less than or equal to 20, less than or equal to 10, less than or equal to 5, or less than or equal to 3 times the uptake rate of the active pharmaceutical agent alone by the subject. Combinations of the above-referenced ranges are also possible (e.g., at least 2 or less than or equal to 100 times). Other ranges are also possible. The uptake rate of a composition (or active pharmaceutical agent) may be determined by administering the composition (or active pharmaceutical agent) to a subject and determining the amount of time required to observe a pharmacological effect (e.g., a psychotropic effect, a reduction in disease and/or clinical symptom) of the active pharmaceutical agent on the subject.
A composition such as described herein is provided to a subject, such as a human subject. […]

CCCCCc1cc(O)c2c(c1)OC(C)(C)[C@@H]1CCC(C)=C[C@@H]21 [THC, tetrahydrocannabinol]
time after ingestion until the effects of the THC are felt by the subject: less than 5 minutes
